# US20060178307A1, “Modulation of NMDA receptor currents via orexin receptor and/or CRF receptor” (priority 2005, published 2006)
# “Also recorded” adds a separate entry of the source. Where no end group is shown, it is not given here.
# Tests used:
# [1] = test system: NMDAR-mediated EPSCs in VTA dopamine neurons; experiment: Evoked NMDAR-mediated EPSCs, whole-cell voltage clamp at +40 mV, VTA neurons in midbrain slices; type: cell-based, rat; details: for effect on potentiation of NMDAR-mediated EPSCs by 100 nM orexin A: inhibitor 1 μM in patch pipette; for effect on potentiation of NMDAR-mediated EPSCs by orexin A: inhibitor 100 μM in patch pipette
# Description: Excitatory postsynaptic currents (EPSCs) were recorded from VTA neurons in rat midbrain slices. EPSCs were evoked while holding neurons in voltage clamp at +40 mV. Measurements were taken 20 ms after the stimulus artifact, a time point at which the glutamatergic EPSC is mediated purely by NMDARs.
# The patch pipette was loaded with the PLC inhibitor, U-73122 (1 μM, FIG. 2A, C, n=6) or the PKC inhibitor, chelerythrin (1 μM, FIG. 1A, B, n=6). […] Next, the protein kinase A inhibitor, PKI (20 μM, FIG. 2A, F, n=8) or Rp-cAMPs, a blocker of cAMP (100 μM, FIG. 2A, E, n=5) was added to the patch pipette.
# Activation of PKC is implicated in NMDAR-dependent long-term potentiation (Malinow et al., 1989) and it modulates NMDAR trafficking to the membrane (Lan et al., 2001; Scott et al., 2001; Fong et al., 2002). NMDARs can translocate from intracellular or extrasynaptic pools to synaptic sites (Lan et al., 2001; Tovar and Westbrook, 2002). […] In a separate group of slices, orexin A (100 nM, n=6) was applied for 5 min during the washout period.
# All of the electrophysiological recordings were performed in rats ranging from P21 to P30. Briefly, rats were anesthetized with halothane and sacrificed. Horizontal sections of the VTA ([…]) were prepared with a vibratome (Leica, Nussloch, Germany). Slices were placed in a holding chamber and allowed to recover for at least 1 hour before being placed in the recording chamber and superfused with bicarbonate-buffered solution (ACSF) saturated with 95% O2/5% CO2 and containing (in mM): 119 NaCl, 1.6 KCl, 1.0 NaH2PO4, 1.3 MgCl2, 2.5 CaCl2, 26.2 NaHCO3 and 11 glucose (at 32-34° C.). Picrotoxin (100 μM) was added to block GABAA receptor-mediated inhibitory postsynaptic currents. Cells were visualized using infrared differential interference contrast video microscopy. Whole-cell voltage clamp recordings were made using an Axopatch 1D amplifier (Axon Instruments, Union City, Calif.). Electrodes (2.8-4.0 MΩ) contained (in mM): 120 Cesium Methansulfonate, 20 HEPES, 0.4 EGTA, 2.8 NaCl, 5 TEA-Cl, 2.5 MgATP, and 0.25 NaGTP, pH 7.2-7.3 (270-285 mOsm). Series resistance (10-40 MΩ) and input resistance were monitored on-line with a 4-mV depolarizing step (50 ms) given just after every afferent stimulus. Dopaminergic VTA neurons were identified by the presence of a large Ih current (Lacey et al., 1990; Johnson and North, 1992) and, in some cases, tyrosine hydroxylase labeling. A bipolar stimulating electrode was placed 100-300 μm rostral to the recording electrode and was used to stimulate excitatory afferents at 0.1 Hz. Neurons were voltage-clamped at −70 mV and +40 mV to record AMPAR- and NMDAR-mediated EPSCs.
# [2] = test system: NMDAR-mediated currents in VTA dopamine cells; experiment: CRF-related peptides on NMDAR-mediated currents at excitatory synapses onto VTA dopamine cells; type: cell-based; details: mammalian brain
# AMPAR mEPSCs = experiment: AMPAR-mediated miniature EPSCs (mEPSCs) in VTA neurons; type: cell-based, rat; details: APV 50 μM 3 min prior and during orexin application
# Description: Next, to investigate whether AMPAR function and/or number was modified with orexin A treatment, AMPAR-mediated miniature EPSCs (mEPSCs) were examined (a standard method for determining the locus of synaptic change). Compared to untreated neurons, orexin A (100 nM) caused a significant increase in both amplitude (FIG. 6C,D,F) and frequency (FIG. 6C,E,G) 3-4 hours after application (24±1.6 pA; 2.4±0.5 Hz; n=7 vs control: 13±1.3 pA; 0.93±0.16 Hz; n=7; FIG. 6A), but not at 15 min (15±1.7 pA; 0.9±0.1 Hz; n=[…], FIG. 6B).
# AMPAR mEPSCs were recorded in cells voltage-clamped at −70 mV in lidocaine (500 μM), APV (50 μM) and sucrose (100 mM). NMDAR mEPSCs were recorded at −40 mV in Mg2+-free external solution with lidocaine (500 μM), glycine (20 μM), and CNQX (10 μM). mEPSCs were collected using Clampex (Axon Instruments) and analyzed using Mini Analysis Program (Synaptosoft). Detection criteria were set at >10 pA, <1 ms rise-time, and <3 ms decay-time for AMPAR mEPSCs and >10 pA, <1 ms rise-time, and <10 ms decay-time for NMDAR mEPSCs. mEPSC traces were recorded while sampling every 10 μs, the images were filtered at 5 kHz. Averaged mEPSCs were constructed using Mini Analysis Program (Synaptosoft).
# locomotor activity [3] = experiment: Locomotor sensitization to cocaine, intra-VTA OXR1 antagonist, 7-day paradigm; type: in vivo, Sprague-Dawley rats; details: control animals: intra-VTA vehicle + cocaine 15 mg/kg
# Description: Male Sprague-Dawley rats (250 grams) were implanted with bilateral cannulae directed at the VTA (AP, −5.2; ML, ±0.5, DV −8.0). Following recovery from surgery, animals were tested in a cocaine sensitization assay similar to that used for systemic administration of the OXR1 antagonist, but with two changes: a 7-day sensitization paradigm was used, and the OXR1 antagonist SB 334867 was microinjected directly into the VTA (6 μg/hemisphere in 300 nL solution composed of 10% DMSO in water). All other methods for habituation and data collection were identical to that described above. Rats were deeply anesthetized with pentobarbital, and perfused with a 10% formaldehyde solution. Brains were cryoprotected in 25% sucrose, 40 μm coronal sections were cut on a freezing microtome, and sections were mounted, dried and coverslipped. Injection sites were located under a light microscope and recorded on atlas figures adapted from Paxinos and Watson (1997).
# [4] = test system: AMPAR/NMDAR ratio of EPSCs in VTA dopamine cells; experiment: AMPAR/NMDAR ratio in VTA slices 24 hr after 5-day in vivo treatment; set-up: species or system rat; details: cocaine 15 mg/kg, 5-day treatment, n=4
# Description: The next study investigated whether orexin signaling in the VTA is required for the long-term plasticity associated with the development of behavioral sensitization. Long-term synaptic plasticity at excitatory synapses on VTA neurons was examined 24 hr after a 5-day treatment of cocaine (15 mg/kg) or saline (0.9%), a time course shown to induce long-lasting locomotor sensitization to cocaine (Thomas et al., 2001), with or without the OXR1 antagonist, SB 334867 (10 mg/kg, FIG. 5). To assay for synaptic plasticity, the relative contributions of AMPARs and NMDARs to EPSCs recorded in VTA dopamine cells were compared. Consistent with the potentiation observed following acute and 7-day cocaine treatments (Borgland et al., 2004), 5-day treatment with cocaine potentiated the AMPAR/NMDAR ratio compared to saline controls (FIG. 5A, saline: 0.4±0.07, n=4; cocaine: 0.8±0.1, n=4, p<0.05). This potentiation of synaptic plasticity was blocked by 5-day treatment with the OXR1 antagonist, SB 334867, administered 15 min prior to cocaine or saline (FIG. 5A, saline+SB334867: 0.4±0.02, n=5 vs. cocaine+SB334867: 0.5±0.08, n=11, p>0.05). Since OXR1 antagonists block cocaine-mediated potentiation of the AMPAR/NMDAR ratio, orexin A may either facilitate cocaine-mediated synaptic plasticity or enhance synaptic transmission itself. A 5-min orexin A application was performed to determine whether this caused changes in AMPAR/NMDAR ratio either 15 min or 3-4 hours after application (FIG. 5B).
# To calculate the AMPAR/NMDAR ratio, an average of 12 EPSCs at +40 mV was computed before and after application of the NMDAR blocker, AP5 (50 μM) for 5 min. NMDAR responses were calculated by subtracting the average response in the presence of AP5 (AMPAR only) from that seen in its absence; the peak of the AMPAR EPSC was divided by the peak of the NMDAR EPSC to yield an AMPAR/NMDAR ratio.
# Male Sprague-Dawley Rats (P21-P30; Charles River, N.C.) were singly housed with food and water available ad libitum. A 12 hr light/dark cycle was used, with the lights on at 7:00 A.M. All cocaine injections and behavioral testing were performed during the light cycle for consecutive days. The four treatment groups consisted of rats given 5 daily i.p. injections of SB 334867 (10 mg/kg) 15 min preceding i.p. injection of cocaine (15 mg/kg) or saline (0.9% NaCl), or i.p. injections of vehicle (10% DMSO and 25% β-hydroxy cyclodextrin in saline) 15 min preceding i.p. injection of cocaine or saline. […] Locomotor activity was measured in 17″×17″ chambers lined with three 16-beam I/R arrays. […] Distance traveled was measured using Open Field Activity Software (Med Associates, Inc) and analyzed for estimates of locomotion based on the movement of a given distance and resting delay (movement in a given period of time).
# locomotor activity [5] = experiment: Locomotor sensitization to cocaine, i.p. OXR1 antagonist, open field; type: in vivo, Sprague-Dawley rats; details: n=13
# Description: To determine if orexin signaling plays a role in behavioral sensitization to cocaine, either the OXR1 antagonist SB 334867 (10 mg/kg, i.p.) or vehicle was injected 15 min prior to injecting cocaine (15 mg/kg, i.p) or saline (0.9%), and then the rats were placed in an open field chamber to measure locomotor activity for 1 hour each day for 5 days.
# Therefore, to determine if expression of cocaine sensitization requires release of orexin acting at the OXR1 receptor, the OXR1 antagonist SB 334867 (10 mg/kg) was injected with cocaine (15 mg/kg) on day 6 into either cocaine-sensitized or saline-treated rats.
# Male Sprague-Dawley Rats (P21-P30; Charles River, N.C.) were singly housed with food and water available ad libitum. A 12 hr light/dark cycle was used, with the lights on at 7:00 A.M. All cocaine injections and behavioral testing were performed during the light cycle for consecutive days. The four treatment groups consisted of rats given 5 daily i.p. injections of SB 334867 (10 mg/kg) 15 min preceding i.p. injection of cocaine (15 mg/kg) or saline (0.9% NaCl), or i.p. injections of vehicle (10% DMSO and 25% β-hydroxy cyclodextrin in saline) 15 min preceding i.p. injection of cocaine or saline. All animals were habituated to the photocell boxes (Med Associates, St. Albans, Vt.) for 2 hours prior to the start of the experiment. All animals were further habituated to the photocell boxes for 30 min prior to 60 min testing session. Locomotor activity was measured in 17″×17″ chambers lined with three 16-beam I/R arrays. A 50 ms scanning rate was used for measurement of beams broken. Distance traveled was measured using Open Field Activity Software (Med Associates, Inc) and analyzed for estimates of locomotion based on the movement of a given distance and resting delay (movement in a given period of time).
compound,measurement,setting,value
COc1ccc2c(c[n+](C)c3c4cc5c(cc4ccc23)OCO5)c1OC [chelerythrin],effect on potentiation of NMDAR-mediated EPSCs by 100 nM orexin A,[1]; n=6,completely blocked
CC(C(O)c1ccc(O)cc1)N1CCC(Cc2ccccc2)CC1 (stereo not drawn) [ifenprodil],remaining current after application,[1]; bath-applied 3 μM,71±6%
same,effect on orexin A-mediated potentiation of NMDAR EPSCs,[1]; ifenprodil 3 μM bath-applied,no significant effect; also recorded: not affected
"ovine CRF: CRF form that does not bind CRF-BP (SQEPPISLDLTFHLLREVLEMTKADQLAQQAHSNRKLLDIA; ends and bridges not checked; UniProt P01142 148-188, looked up)",potentiation of NMDAR currents,[2],do not potentiate
"Urocortin II: peptide that does not bind CRF-BP (IVLSLDVPIGLLQILLEQARARAAREQATTNARILARVGHC; ends and bridges not checked; UniProt Q96RP3 72-112, looked up)",potentiation of NMDAR currents,[2],do not potentiate
"N[C@H](CCCP(=O)(O)O)C(=O)O [APV, D (−)-2-Amino-5-phosphonopentanoic acid]",effect on orexin A-induced increase in AMPAR mEPSC amplitude at 3-4 hours,AMPAR mEPSCs,significantly reduced; also recorded: blocked
Nc1ncnc2c1ncn2[C@@H]1O[C@@H]2CO[P@@](O)(=S)O[C@H]2[C@H]1O [Rp-cAMPs],effect on potentiation of NMDAR-mediated EPSCs by orexin A,[1]; n=5,robust potentiation
same,effect on potentiation of NMDAR-mediated EPSCs by orexin A,"[1]; n=5, listed as Rp-cAMPS",did not block
[Zn+2] [Zn^2+],inhibition of NMDAR EPSCs,"[1]; 100 nM, n=6",13±8%
same,inhibition of NMDAR EPSCs,"[1]; 300 nM, n=5",29±9%
same,effect on orexin A-mediated potentiation of NMDARs,[1]; Zn2+ 300 nM,significantly reduced; also recorded: mostly blocked
C[C@H](NC(c1cccc2[nH]c(=O)c(=O)[nH]c12)P(=O)(O)O)c1ccc(Br)cc1 (stereo partly drawn) [NVP-AAM077],remaining current,"[1]; NVP-AAM077 0.4 μM applied during peak increase induced by 100 nM orexin A, n=6",87±11%
same,effect on expression of orexin A-mediated potentiation of NMDAR EPSCs,[1]; NVP-AAM077 0.4 μM applied during peak of potentiation,blocked; also recorded: reversed
same,effect on ability of 100 nM orexin A to potentiate NMDAR EPSCs,[1]; NVP-AAM077 0.4 μM pre-applied,significantly reduced
same,inhibition of NMDAR EPSCs,"[1]; bath application 0.4 μM, n=6",54±7%
COC(=O)[C@H]1[C@@H](OC(=O)c2ccccc2)C[C@@H]2CC[C@H]1N2C [cocaine],mean locomotor distance on day 7,locomotor activity [3],34162±4477 cm
same,AMPAR/NMDAR ratio,[4],0.8±0.1
same,distance traveled on day 5,"locomotor activity [5]; cocaine-only-treated rats, 15 mg/kg i.p.",20347±5643 cm
same,locomotor activity on day 1,locomotor activity [5]; cocaine-treated rats given vehicle,5692±1579 cm
"O=C(O)C1NCCN(C(=O)c2ccc3c(ccc4ccccc43)c2)C1C(=O)O (stereo not drawn) [PPDA, 1-(phenantrene-2carbonyl) piperazine-2,3-dicarboxylic acid]",additional inhibition of NMDAR EPSCs,[1]; 1 μM on top of NVP-AAM077 and ifenprodil,10%
same,effect on orexin A (100 nM)-mediated NMDAR potentiation,[1]; PPDA 1 μM after co-application of NVP-AAM077 and ifenprodil,blocked
same,remaining current,"[1]; PPDA 1 μM with NVP-AAM077 and ifenprodil, n=6",14±2.2%
COc1ccc2c(c1)CC[C@@H]1[C@@H]2CC[C@]2(C)[C@@H](NCCCCCCN3C(=O)C=CC3=O)CC[C@@H]12 [U-73122],effect on potentiation of NMDAR-mediated EPSCs by 100 nM orexin A,[1]; n=6,completely blocked
same,effect on potentiation of NMDAR-mediated EPSCs by 100 nM orexin A,"[1]; n=6, listed as U73122",blocked
